Tests used:
[1] = system: P. falciparum female gametocytes; assay: P. falciparum Dual Gamete Formation Assay (PfDGFA), female readout (Pfs25-positive female gametes); type: cell-based, Plasmodium falciparum NF54; settings: for Average inhibition female (%): average of replicates; for % inhibition female (individual replicates) R1: replicate R1; for % inhibition female (individual replicates) R3: replicate R3; for % inhibition female (individual replicates) R4: replicate R4
Outline: (§1)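 Two sex-specific readouts come from one well: male exflagellation centres recorded by brightfield video right after activation, and female gametes scored by Cy3-anti-Pfs25 fluorescence after 24 h at 28°C.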

[2] = system: P. falciparum male gametocytes; assay: P. falciparum Dual Gamete Formation Assay (PfDGFA), male readout (exflagellation); type: cell-based, Plasmodium falciparum NF54; settings: for Average inhibition male (%): average of replicates; for % inhibition male (individual replicates) R1: replicate R1; for % inhibition male (individual replicates) R3: replicate R3; for % inhibition male (individual replicates) R4: replicate R4; for Activity: hit = >50% inhibition in male or female readout in at least 3 replicates, 0 = no class assigned
Outline: as §1

[3] = 2µM, 24h preincubation with gametocytes prior to induction of gametogenesis
[4] = 2µM, 24h preincubation, hits selected on >50% inhibition in the female readout across replicates
[5] = 2µM, 24h preincubation, hits selected on >50% inhibition in the male readout across replicates
[6] = PfDGFA at 2µM, 24h preincubation
[7] = 2µM, 24h preincubation, number of replicates with >50% inhibition in the female readout
[8] = 2µM, 24h preincubation, number of replicates with >50% inhibition in the male readout
[9] = PfDGFA at 2µM, 24h preincubation with gametocytes prior to induction of gametogenesis
[10] = PfDGFA at 2µM, 24h preincubation with gametocytes

In the case of COc1cc(C(=O)NC2CCN(Cc3ccccc3)CC2)ccc1-c1nc2cc(Cl)c(Cl)cc2[nH]1 [TCMDC-140078], the “Average inhibition female (%)” value [1, 3] is reported as 6.4%, the “% inhibition female (individual replicates) R1” value [1, 3] is reported as 17.0% and the “% inhibition female (individual replicates) R3” value [1, 3] is reported as -8.0%. The “% inhibition female (individual replicates) R4” value [1, 3] was 18.5%, the HitlevelF [1, 4] was 0 and the “Average inhibition male (%)” value [2, 3] was 4.4%. For the same compound, the “% inhibition male (individual replicates) R1” value [2, 3] was 13.3%, the “% inhibition male (individual replicates) R3” value [2, 3] was 2.8% and the “% inhibition male (individual replicates) R4” value [2, 3] was 2.9%. For the same compound, the HitlevelM [2, 5] was 0 and the Activity [2, 6] was 0.

CN(C)CCCOc1cccc(CCNCc2cccc(Oc3ccc(Cl)cc3)c2)c1.O=C(O)C(F)(F)F [TCMDC-140091] was tested, and the “Average inhibition female (%)” value [1, 3] was 6.3%, the “% inhibition female (individual replicates) R1” value [1, 3] was 16.6% and the “% inhibition female (individual replicates) R3” value [1, 3] was -0.66%. For the same compound, the “% inhibition female (individual replicates) R4” value [1, 3] was -7.8%, the HitlevelF [1, 4] was 0 and the “Average inhibition male (%)” value [2, 3] was 24.7%. The “% inhibition male (individual replicates) R1” value [2, 3] was 7.1%, the “% inhibition male (individual replicates) R3” value [2, 3] was 12.3% and the “% inhibition male (individual replicates) R4” value [2, 3] was 44.2%. For the same compound, the HitlevelM [2, 5] was 0 and the Activity [2, 6] was 0.

For CC(=O)Nc1ccc2[nH]cc(C3CCN(CC4CCC(NC(=O)/C=C/c5ccccc5Cl)CC4)CC3)c2n1 (stereo not drawn) [TCMDC-140111], the “Average inhibition female (%)” value [1, 3] was 28.1%, the “% inhibition female (individual replicates) R1” value [1, 3] was 31.7% and the “% inhibition female (individual replicates) R3” value [1, 3] was 20.9%. The “% inhibition female (individual replicates) R4” value [1, 3] was 26.6%, the HitlevelF [1, 7] was 0 and the “Average inhibition male (%)” value [2, 3] was 33.8%. For the same compound, the “% inhibition male (individual replicates) R1” value [2, 3] was 38.4%, the “% inhibition male (individual replicates) R4” value [2, 3] was 14.3% and the HitlevelM [2, 8] was 0.

For CC(=O)Nc1ccc2[nH]cc(C3CCN(CC4CCN(C(=O)/C=C/c5ccc(Cl)c(Cl)c5)CC4)CC3)c2n1 [TCMDC-140112], the “Average inhibition female (%)” value [1, 3] was 33.3%, the “% inhibition female (individual replicates) R1” value [1, 3] was 35.7% and the “% inhibition female (individual replicates) R3” value [1, 3] was 28.7%. The “% inhibition female (individual replicates) R4” value [1, 3] was 36.0%, the HitlevelF [1, 7] was 0 and the “Average inhibition male (%)” value [2, 3] was 36.8%. The “% inhibition male (individual replicates) R1” value [2, 3] was 41.7%, the “% inhibition male (individual replicates) R3” value [2, 3] was 26.0% and the “% inhibition male (individual replicates) R4” value [2, 3] was 45.6%. It also gave a HitlevelM [2, 8] of 0.

For CC(=O)Nc1ccc2[nH]cc(C3CCN(CC4CCC(NC(=O)/C=C/c5ccc(Cl)c(Cl)c5)CC4)CC3)c2n1 (stereo not drawn) [TCMDC-140114], the “Average inhibition female (%)” value [1, 3] was 33.1%, the “% inhibition female (individual replicates) R1” value [1, 3] was 26.2% and the “% inhibition female (individual replicates) R3” value [1, 3] was 29.8%. For the same compound, the “% inhibition female (individual replicates) R4” value [1, 3] was 41.8%, the HitlevelF [1, 7] was 0 and the “Average inhibition male (%)” value [2, 3] was 48.3%. The “% inhibition male (individual replicates) R1” value [2, 3] was 53.7%, the “% inhibition male (individual replicates) R3” value [2, 3] was 39.7% and the “% inhibition male (individual replicates) R4” value [2, 3] was 57.6%. The HitlevelM [2, 8] was 2.

In the case of Nc1cc2c(C3CCN(CC4CCN(C(=O)/C=C/c5ccc(Cl)c(Cl)c5)CC4)CC3)c[nH]c2cn1 [TCMDC-140133], the “Average inhibition female (%)” value [1, 3] is reported as 13.5%, the “% inhibition female (individual replicates) R1” value [1, 3] is reported as 13.3% and the “% inhibition female (individual replicates) R3” value [1, 3] is reported as 3.5%. For the same compound, the “% inhibition female (individual replicates) R4” value [1, 3] was 10.0%, the HitlevelF [1, 7] was 0 and the “Average inhibition male (%)” value [2, 3] was 52.8%. For the same compound, the “% inhibition male (individual replicates) R1” value [2, 3] was 50.4%, the “% inhibition male (individual replicates) R3” value [2, 3] was 47.4% and the “% inhibition male (individual replicates) R4” value [2, 3] was 52.9%. For the same compound, the HitlevelM [2, 8] was 3.

O=C(/C=C/c1c(Cl)cccc1Cl)NC1CCC(CN2CCC(c3c[nH]c4ccncc34)CC2)CC1 (stereo not drawn) [TCMDC-140220] was tested, and the “Average inhibition female (%)” value [1, 3] was 10.7%, the “% inhibition female (individual replicates) R1” value [1, 3] was 11.8% and the “% inhibition female (individual replicates) R3” value [1, 3] was 11.4%. The “% inhibition female (individual replicates) R4” value [1, 3] was 18.8%, the HitlevelF [1, 4] was 0 and the “Average inhibition male (%)” value [2, 3] was 43.5%. The “% inhibition male (individual replicates) R1” value [2, 3] was 44.6%, the “% inhibition male (individual replicates) R3” value [2, 3] was 17.7% and the “% inhibition male (individual replicates) R4” value [2, 3] was 42.9%. It also gave a HitlevelM [2, 5] of 1 and an Activity [2, 6] of 0.

With CN(C)CCCOc1ccccc1CN1CC[C@H](NC(=O)c2ccc(Cl)c(Cl)c2)C1.O=C(O)C(F)(F)F [TCMDC-140310] the “Average inhibition female (%)” value [1, 3] was 10.5%, the “% inhibition female (individual replicates) R1” value [1, 3] was 10.3% and the “% inhibition female (individual replicates) R3” value [1, 3] was 9.3%. The “% inhibition female (individual replicates) R4” value [1, 3] was 14.4%, the HitlevelF [1, 4] was 0 and the “Average inhibition male (%)” value [2, 3] was 6.1%. The “% inhibition male (individual replicates) R1” value [2, 3] was 4.0%, the “% inhibition male (individual replicates) R4” value [2, 3] was 4.7% and the HitlevelM [2, 5] was 0. The Activity [2, 6] was 0.

Cc1ccc2cc(NC(=O)CCCCCCCON3C(N)=NC(N)=NC34CCCCC4)ccc2n1.O=C(O)C(F)(F)F [TCMDC-140377] was tested, and the “% inhibition female (individual replicates) R1” value [1, 9] was 7.6%, the “% inhibition female (individual replicates) R3” value [1, 9] was -9.1% and the “% inhibition female (individual replicates) R4” value [1, 9] was 0.33%. For the same compound, the “Average inhibition female (%)” value [1, 6] was 0.7%, the “% inhibition male (individual replicates) R1” value [2, 9] was -16.0% and the “% inhibition male (individual replicates) R3” value [2, 9] was -37.7%. The “% inhibition male (individual replicates) R4” value [2, 9] was -32.5% and the “Average inhibition male (%)” value [2, 6] was -24.7%.

For Cc1cc(CNCCCCCCNCc2ccc(-c3ccccc3)cc2)ccc1O [TCMDC-140412], the “% inhibition female (individual replicates) R1” value [1, 9] was 8.1%, the “% inhibition female (individual replicates) R3” value [1, 9] was -7.2% and the “% inhibition female (individual replicates) R4” value [1, 9] was 4.6%. The “Average inhibition female (%)” value [1, 6] was 1.3%, the “% inhibition male (individual replicates) R1” value [2, 9] was 6.5% and the “% inhibition male (individual replicates) R4” value [2, 9] was 7.3%. The “Average inhibition male (%)” value [2, 6] was 9.5%.

Cc1cc(CNCCCCCCCNCc2ccc(-c3ccccc3)cc2)ccc1O [TCMDC-140415] was tested, and the “% inhibition female (individual replicates) R1” value [1, 9] was 15.4%, the “% inhibition female (individual replicates) R3” value [1, 9] was -2.4% and the “% inhibition female (individual replicates) R4” value [1, 9] was -10.0%. The “Average inhibition female (%)” value [1, 6] was 3.6%, the “% inhibition male (individual replicates) R1” value [2, 9] was 37.4% and the “% inhibition male (individual replicates) R3” value [2, 9] was 30.2%. The “% inhibition male (individual replicates) R4” value [2, 9] was 70.9% and the “Average inhibition male (%)” value [2, 6] was 52.6%.

With NCc1cccc(-c2ccccc2CNC2CCN(Cc3ccccc3)CC2)c1.O=C(O)C(F)(F)F [TCMDC-140467] the “Average inhibition female (%)” value [1, 3] was 24.8%, the “% inhibition female (individual replicates) R1” value [1, 3] was 22.3% and the “% inhibition female (individual replicates) R3” value [1, 3] was 3.0%. The “% inhibition female (individual replicates) R4” value [1, 3] was 28.3%, the HitlevelF [1, 7] was 0 and the “Average inhibition male (%)” value [2, 3] was 3.4%. The “% inhibition male (individual replicates) R1” value [2, 3] was -0.12%, the “% inhibition male (individual replicates) R3” value [2, 3] was -13.3% and the “% inhibition male (individual replicates) R4” value [2, 3] was 18.9%. It also gave a HitlevelM [2, 8] of 0.

O=C(O)C(F)(F)F.c1ccc(CN2CCC(NCc3ccc(-c4cccc(CNC5CCCC5)c4)cc3)CC2)cc1 [TCMDC-140491] was tested, and the “Average inhibition female (%)” value [1, 3] was 15.2%, the “% inhibition female (individual replicates) R1” value [1, 3] was 11.0% and the “% inhibition female (individual replicates) R3” value [1, 3] was 20.4%. The “% inhibition female (individual replicates) R4” value [1, 3] was 13.9%, the HitlevelF [1, 4] was 0 and the “Average inhibition male (%)” value [2, 3] was 4.9%. For the same compound, the “% inhibition male (individual replicates) R1” value [2, 3] was 9.8%, the “% inhibition male (individual replicates) R4” value [2, 3] was -11.4% and the HitlevelM [2, 5] was 0. The Activity [2, 6] was 0.

CC(C)CNCc1ccc(-c2cccc(CN(CCN(C)C)C(=O)CCC3CCCC3)c2)cc1.O=C(O)C(F)(F)F [TCMDC-140553] was tested, and the “Average inhibition female (%)” value [1, 10] was 30.3%, the “% inhibition female (individual replicates) R1” value [1, 10] was 23.2% and the “% inhibition female (individual replicates) R3” value [1, 10] was 20.6%. The “% inhibition female (individual replicates) R4” value [1, 10] was 42.3%, the HitlevelF ([1]; number of replicates with >50% inhibition in the female readout, 2µM) was 0 and the “Average inhibition male (%)” value [2, 10] was 71.6%. For the same compound, the “% inhibition male (individual replicates) R1” value [2, 10] was 58.5%, the “% inhibition male (individual replicates) R3” value [2, 10] was 51.6% and the “% inhibition male (individual replicates) R4” value [2, 10] was 94.9%. It also gave a HitlevelM ([2]; number of replicates with >50% inhibition in the male readout, 2µM) of 4.

Reference: PMC10584170, “Machine learning-based phenotypic imaging to characterise the targetable biology of Plasmodium falciparum male gametocytes for the development of transmission-blocking antimalarials” (PLOS Pathogens, 2023)
